Toxic doses and inconclusive results are not listed.
Tested on: L1210 leukemia ip in BDF1 mice, survival T/C
Assay: NCI In Vivo Anticancer Drug Screen. Data for tumor model L1210 Leukemia (intraperitoneal) in B6D2F1 (BDF1) mice
Settings: endpoint: mean survival time, higher = longer survival
Procedure, shortened: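 Ratio derived from survival: compound-dosed mice over vehicle-dosed mice, all bearing a transplantable tumor.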

[1] = dose: 100.0 mg/kg/injection, schedule: Q04DX003 (ip), vehicle: saline with Tween-80
[2] = dose: 200.0 mg/kg/injection, schedule: Q04DX003 (ip), vehicle: saline with Tween-80
[3] = dose: 400.0 mg/kg/injection, schedule: Q04DX003 (ip), vehicle: saline with Tween-80
[4] = dose: 50.0 mg/kg/injection, schedule: Q01DX001 (ip), vehicle: carboxymethylcellulose (CMC)
[5] = dose: 100.0 mg/kg/injection, schedule: Q01DX009 (ip), vehicle: Klucel (hydroxypropylcellulose) (HPC)
[6] = dose: 100.0 mg/kg/injection, schedule: Q04DX003 (ip), vehicle: Klucel (hydroxypropylcellulose) (HPC)
[7] = dose: 200.0 mg/kg/injection, schedule: Q01DX009 (ip), vehicle: Klucel (hydroxypropylcellulose) (HPC)
[8] = dose: 200.0 mg/kg/injection, schedule: Q04DX003 (ip), vehicle: Klucel (hydroxypropylcellulose) (HPC)
[9] = dose: 400.0 mg/kg/injection, schedule: Q01DX009 (ip), vehicle: Klucel (hydroxypropylcellulose) (HPC)
[10] = dose: 400.0 mg/kg/injection, schedule: Q04DX003 (ip), vehicle: Klucel (hydroxypropylcellulose) (HPC)
[11] = dose: 200.0 mg/kg/injection, schedule: Q01DX001 (ip), vehicle: carboxymethylcellulose (CMC)
[12] = dose: 400.0 mg/kg/injection, schedule: Q01DX001 (ip), vehicle: carboxymethylcellulose (CMC)
[13] = dose: 100.0 mg/kg/injection, schedule: Q01DX001 (ip), vehicle: carboxymethylcellulose (CMC)
[14] = dose: 100.0 mg/kg/injection, schedule: Q04DX002 (ip), vehicle: Klucel (hydroxypropylcellulose) (HPC)
[15] = dose: 200.0 mg/kg/injection, schedule: Q04DX002 (ip), vehicle: Klucel (hydroxypropylcellulose) (HPC)

## CN(C)C(=O)Sc1ccc2ccc3ccccc3c2c1
dose: 50.0 mg/kg/injection, schedule: Q04DX002 (ip), vehicle: saline with Tween-80
  T/C: 108 % of control
dose: 100.0 mg/kg/injection, schedule: Q04DX002 (ip), vehicle: saline with Tween-80
  T/C: 104 % of control
dose: 200.0 mg/kg/injection, schedule: Q04DX002 (ip), vehicle: saline with Tween-80
  T/C: 108 % of control

## CCOC(=O)NC1CCC2c3ccccc3C([N+](=O)[O-])(C1)c1ccccc12 (stereo unspecified)
[1]
  T/C: 106 % of control
[2]
  T/C: 95 % of control
[3]
  T/C: 90 % of control

## CCC[P+](c1ccccc1)(c1ccccc1)c1ccccc1
dose: 3.13 mg/kg/injection, schedule: Q01DX009 (ip), vehicle: saline with Tween-80
  T/C: 123 % of control
dose: 3.13 mg/kg/injection, schedule: Q04DX003 (ip), vehicle: saline with Tween-80
  T/C: 102 % of control
dose: 5.56 mg/kg/injection, schedule: Q01DX009 (ip), vehicle: saline with Tween-80
  T/C: 118 % of control
dose: 6.25 mg/kg/injection, schedule: Q01DX009 (ip), vehicle: saline with Tween-80
  T/C: 118 % of control
dose: 6.25 mg/kg/injection, schedule: Q04DX003 (ip), vehicle: saline with Tween-80
  T/C: 96 % of control
dose: 8.33 mg/kg/injection, schedule: Q01DX009 (ip), vehicle: saline with Tween-80
  T/C: 121 % of control
dose: 9.5 mg/kg/injection, schedule: Q01DX001 (ip), vehicle: other
  T/C: 111 % of control
dose: 12.5 mg/kg/injection, schedule: Q01DX001 (ip), vehicle: carboxymethylcellulose (CMC)
  T/C: 101 % of control
dose: 12.5 mg/kg/injection, schedule: Q04DX003 (ip), vehicle: saline with Tween-80
  T/C: 105 % of control
dose: 12.5 mg/kg/injection, schedule: Q04DX003 (ip), vehicle: saline
  T/C: 100 % of control
dose: 18.75 mg/kg/injection, schedule: Q01DX009 (ip), vehicle: saline with Tween-80
  T/C: 120 % of control
dose: 19.0 mg/kg/injection, schedule: Q01DX001 (ip), vehicle: other
  T/C: 102 % of control
dose: 25.0 mg/kg/injection, schedule: Q01DX001 (ip), vehicle: carboxymethylcellulose (CMC)
  T/C: 104 % of control
dose: 25.0 mg/kg/injection, schedule: Q04DX003 (ip), vehicle: saline with Tween-80
  T/C: 105 % of control
dose: 25.0 mg/kg/injection, schedule: Q04DX003 (ip), vehicle: saline
  T/C: 108 % of control
dose: 38.0 mg/kg/injection, schedule: Q01DX001 (ip), vehicle: other
  T/C: 107 % of control
[4]
  T/C: 99 % of control
dose: 50.0 mg/kg/injection, schedule: Q04DX003 (ip), vehicle: saline with Tween-80
  T/C: 105 % of control

## Oc1ccccc1OCc1ccccc1
dose: 50.0 mg/kg/injection, schedule: Q04DX003 (ip), vehicle: Klucel (hydroxypropylcellulose) (HPC)
  T/C: 92 % of control
[5]
  T/C: 101 % of control
[6]
  T/C: 94 % of control
[7]
  T/C: 97 % of control
[8]
  T/C: 92 % of control
[9]
  T/C: 102 % of control
[10]
  T/C: 100 % of control

## O=NN(CCCl)C(=O)N(C1CCCCC1)C1CCCCC1
dose: 177.0 mg/kg/injection, schedule: Q01DX009 (ip), vehicle: carboxymethylcellulose (CMC)
  T/C: 121 % of control
dose: 400.0 mg/kg/injection, schedule: Q01DX009 (ip), vehicle: carboxymethylcellulose (CMC)
  T/C: 117 % of control
dose: 600.0 mg/kg/injection, schedule: Q01DX009 (ip), vehicle: carboxymethylcellulose (CMC)
  T/C: 166 % of control

## COC(=O)CCC(C)C1CCC2C3CCC4CC(OC(C)=O)CCC4(C)C3CCC12C (stereo unspecified)
dose: 100.0 mg/kg/injection, schedule: Q01DX001 (ip), vehicle: saline with Tween-80
  T/C: 95 % of control
dose: 200.0 mg/kg/injection, schedule: Q01DX001 (ip), vehicle: saline with Tween-80
  T/C: 95 % of control
dose: 400.0 mg/kg/injection, schedule: Q01DX001 (ip), vehicle: saline with Tween-80
  T/C: 89 % of control

## O=C(C(Cl)(Cl)CO)C(Cl)(Cl)CO
dose: 100.0 mg/kg/injection, schedule: Q01DX001 (ip), vehicle: saline
  T/C: 91 % of control
dose: 200.0 mg/kg/injection, schedule: Q01DX001 (ip), vehicle: saline
  T/C: 94 % of control
dose: 400.0 mg/kg/injection, schedule: Q01DX001 (ip), vehicle: saline
  T/C: 92 % of control

## CC1OC(c2ccccc2)OC2COC(c3ccccc3)OC12 (stereo unspecified)
[1]
  T/C: 102 % of control
[2]
  T/C: 96 % of control
[3]
  T/C: 96 % of control

## CC(=O)OCC1CC2C=CC1C2 (stereo unspecified)
dose: 222.0 mg/kg/injection, schedule: Q01DX Z (ip), vehicle: saline
  T/C: 98 % of control
dose: 333.0 mg/kg/injection, schedule: Q01DX Z (ip), vehicle: saline
  T/C: 102 % of control
dose: 500.0 mg/kg/injection, schedule: Q01DX Z (ip), vehicle: saline
  T/C: 104 % of control

## C/C(CCC1=CC=CC1=O)=N\NC(N)=O
dose: 100.0 mg/kg/injection, schedule: Q01DX001 (ip), vehicle: other
  T/C: 98 % of control

## ClCC1CC2c3ccccc3C1c1ccccc12 (stereo unspecified)
dose: 100.0 mg/kg/injection, schedule: Q04DX003 (ip), vehicle: saline
  T/C: 94 % of control
dose: 200.0 mg/kg/injection, schedule: Q04DX003 (ip), vehicle: saline
  T/C: 87 % of control
dose: 400.0 mg/kg/injection, schedule: Q04DX003 (ip), vehicle: saline
  T/C: 90 % of control

## CN(N=O)C(=O)NN(C)C(=O)N(C)N=O
[4]
  T/C: 114 % of control
[11]
  T/C: 121 % of control
dose: 300.0 mg/kg/injection, schedule: Q01DX001 (ip), vehicle: carboxymethylcellulose (CMC)
  T/C: 114 % of control
[12]
  T/C: 121 % of control

## CC(=O)Nc1ccc2c(c1)Cc1c(F)ccc(F)c1-2
[4]
  T/C: 98 % of control
[13]
  T/C: 91 % of control
[11]
  T/C: 91 % of control
[12]
  T/C: 98 % of control

## CC(/C=N/O)=C1C=CC=C1
dose: 100.0 mg/kg/injection, schedule: Q01DX001 (ip), vehicle: Klucel (hydroxypropylcellulose) (HPC)
  T/C: 94 % of control
[5]
  T/C: 98 % of control
[6]
  T/C: 102 % of control
dose: 200.0 mg/kg/injection, schedule: Q01DX001 (ip), vehicle: Klucel (hydroxypropylcellulose) (HPC)
  T/C: 92 % of control
[7]
  T/C: 100 % of control
[8]
  T/C: 98 % of control
dose: 400.0 mg/kg/injection, schedule: Q01DX001 (ip), vehicle: Klucel (hydroxypropylcellulose) (HPC)
  T/C: 97 % of control
[9]
  T/C: 105 % of control
[10]
  T/C: 102 % of control

## NC(=S)N/N=C/c1c(Cl)n(C(=O)c2ccccc2)c2ccccc12
dose: 50.0 mg/kg/injection, schedule: Q04DX002 (ip), vehicle: Klucel (hydroxypropylcellulose) (HPC)
  T/C: 98 % of control
[14]
  T/C: 87 % of control
[15]
  T/C: 87 % of control

## CC(C)(C)CC(C)(C)c1ccc(OCCOCCSC(=N)N)cc1
[4]
  T/C: 93 % of control
[13]
  T/C: 98 % of control

## C[As](C)[Se]CC1OC(O)C(O)C(O)C1O (stereo unspecified)
dose: 50.0 mg/kg/injection, schedule: Q01DX009 (ip), vehicle: saline with Tween-80
  T/C: 104 % of control

## Nc1ncnc2c1ncn2C1OC(COP(=O)(O)O)C(O)C1O (stereo unspecified)
dose: 9.4 mg/kg/injection, schedule: Q03HX016 (ip), vehicle: water
  T/C: 108 % of control
dose: 9.4 mg/kg/injection, schedule: Q03HX024 (ip), vehicle: water
  T/C: 104 % of control
dose: 18.8 mg/kg/injection, schedule: Q03HX016 (ip), vehicle: water
  T/C: 108 % of control
dose: 18.8 mg/kg/injection, schedule: Q03HX024 (ip), vehicle: water
  T/C: 106 % of control
dose: 37.5 mg/kg/injection, schedule: Q03HX016 (ip), vehicle: water
  T/C: 108 % of control
dose: 37.5 mg/kg/injection, schedule: Q03HX024 (ip), vehicle: water
  T/C: 110 % of control
dose: 75.0 mg/kg/injection, schedule: Q03HX016 (ip), vehicle: water
  T/C: 116 % of control
dose: 75.0 mg/kg/injection, schedule: Q03HX024 (ip), vehicle: water
  T/C: 115 % of control
dose: 100.0 mg/kg/injection, schedule: Q01DX005 (ip), vehicle: saline
  T/C: 98 % of control
dose: 200.0 mg/kg/injection, schedule: Q01DX005 (ip), vehicle: saline
  T/C: 98 % of control

## NC(=O)C(=Cc1ccc([N+](=O)[O-])s1)C(N)=O
[14]
  T/C: 107 % of control
[15]
  T/C: 112 % of control

## COc1ccc(CCn2ccc(C(=O)O)cc2=O)cc1OC
[5]
  T/C: 89 % of control
[6]
  T/C: 91 % of control
[7]
  T/C: 101 % of control
[8]
  T/C: 94 % of control
[9]
  T/C: 99 % of control
[10]
  T/C: 105 % of control
